Source: patent US12202801B1 (priority 2023, dated 2025)

What was measured:
[1] = test system: Mycobacterium tuberculosis multidrug-resistant (MDR) strain; assay: microbe, parasite or virus in culture; format: cell-based; details: 192 h, read-out: Anti-tubercular activity against Mycobacterium tuberculosis (MIC), MDR
[2] = test system: Mycobacterium tuberculosis extensively drug-resistant (XDR) strain; assay: microbe, parasite or virus in culture; format: cell-based; details: 192 h, read-out: Anti-tubercular activity against Mycobacterium tuberculosis (MIC), XDR

N#Cc1ccc(C(=O)C[n+]2ccc(C#N)cc2)cc1.[Br-] [Compound 3f, 4-Cyano-1-(2-(4-cyanophenyl)-2-oxoethyl)pyridin-1-ium bromide]
MIC [1]: 4 µg/mL
MIC [2]: 32 µg/mL
